In patent publication US20070154449A1, “TIGHT JUNCTION MODULATING PEPTIDES FOR ENHANCED MUCOSAL DELIVERY OF THERAPEUTIC COMPOUNDS” (Nastech Pharmaceutical Company Inc., priority 2005, published 2007):

Experiments:
Type in all cases: cell-based
[1] = test system: human-derived tracheal/bronchial epithelial cells (EpiAirway™ Tissue model system); assay: FITC-Dextran (FD3) permeation assay, EpiAirway tissue model; details: for % FD3 Permeation: 1 h at 37° C.
Method: A FITC labeled dextran with a molecular weight 3000 (FD3) was used to assess the efficacy of individual TJMP on epithelial cell monolayer permeation. The tissue insert plates were transferred to a 96-well receiver plate containing 200 μl of DPBS++ as basal media. The apical surface of each tissue culture insert was incubated with a 20 μl sample of a single test formulation (refer to Table 4 in Example 2 for details of test formulations) for one hour at 37° C. in the dark on a shaker (˜100 rpm). Following the 1 hour incubation period, underlying basal media samples were taken from each tissue culture insert and temporarily stored in the dark at room temperature until FD3 levels were quantified by fluorescence spectroscopy. For FD3 measurements, a 150 μl of basal media sample was transferred to a black, clear bottom 96-well plate. Fluorescence emission at 528/20 following excitation at 485/20 were measured using a FLx800 fluorescence plate reader from Biotek Instruments.
Permeation was calculated as: [formula] [formula] Formula terms for permeation defined: […]
(§1) Of the total 300 μl volume for each test formulation, only a 20 μl sample was applied to the human-derived tracheal/bronchial epithelial cells (EpiAirway™ Tissue model system) in order to assess the effect each test formulation had on TER, LDH and sample permeation.

[2] = test system: human-derived tracheal/bronchial epithelial cells (EpiAirway™ Tissue model system); assay: Cytotoxicity (LDH assay), EpiAirway tissue model; details: 1 h incubation, % of 1% Triton X-100 control
Method: The amount of cell death was assayed by measuring the release of lactate dehydrogenase (LDH) from the cells into the apical medium using a CytoTox 96 Cytotoxicity Assay Kit (Promega Corp., Madison, Wis.). One percent Octylphenolpoly (ethyleneglycolether)×(Triton X-100™) diluted in phosphate buffered saline (PBS) causes 100% lysis in cultured cells and served herein as a positive control for the LDH assay. Following the one hour incubation period with a test formulation (refer to Table 4 in Example 2 for details of test formulations), the total liquid volume of each insert was brought to a final volume of 200 μl with culture medium. The apical medium was then mixed by pipetting four times with a multichannel pipette set to a 100 μl volume. After mixing, a 100 μl sample from the apical side of each insert was transferred to a new 96-well plate. The apical media samples were sealed with a plate sealer and stored at room temperature for same day analysis or stored overnight at 4° C. for analysis the next day. To measure LDH levels, 5 μl of the 100 μl apical media sample was diluted in 45 μl DPBS in a new 96-well plate. Fresh, cell-free culture medium will be used as a blank. Fifty microliters of substrate solution was added to each well and incubated for 30 minutes at room temperature away from direct light. Following the 30 minute incubation, 50 μl of stop solution was added to each well. Optical density (OD) was measured at 490 nm with a uQuant absorbance plate reader from Biotek Instruments. The measurement of LDH release into the apical media indicates relative cytotoxicity of the samples. Percent cytotoxicity for each test formulation was calculated by subtracting the measured absorbance of the PBS control (basal level of LDH release) from the measured absorbance of the individual test formulation and then dividing that value by the measured absorbance for the 1% Triton X-100™ positive control, multiplied by 100.
The formula used to calculate percent cytotoxicity is as follows: [formula] Osmolality
as §1

[3] = test system: human-derived tracheal/bronchial epithelial cells (EpiAirway™ Tissue model system); assay: Transepithelial electrical resistance (TER), EpiAirway tissue model; details: pH 7, 20 μl applied
Method: EpiAirway™ culture membranes were received the day before the experiments started. They are shipped in phenol red-free and hydrocortisone-free Dulbecco's Modified Eagle's Medium (DMEM). The cells are ciliated and psudostratefied, grown to confluency on Millipore Multiscreen Caco-2 96-well assay system comprised of a polycarbonate filter system. Upon receipt, the insert system will be stored unopened at 4° C. and/or cultured in 250 μl basal media per well (phenol red-free and hydrocortisone-free Dulbecco's Modified Eagle's Medium (DMEM)) at 37° C./5% CO2 for 24 hours before use.
TER measurements were taken using the REMS Autosampler (World Precision Instruments, Sarasota, Fla.) with the electrode leads. The electrodes and a tissue culture blank insert will be equilibrated for at least 20 minutes in MatTek Air-100™ medium with the power off prior to checking calibration. The background resistance of the insert system has been established by multiple measurements of a blank insert plate and the same value was used for each test on the platform. Time zero TER (TER0) was measured before incubation of the inserts with the test formulation. The top electrode will be as adjusted so that it is close to, but not making contact with, the top surface of the insert membrane. Background resistance of the blank insert should be about 5-20 ohms. For each TER determination, 100 μl of MatTek Air-100™ medium was added to the insert and 250 μl in the basal well followed by placement in the Endohm chamber. All TER values are reported as a function of the surface area of the tissue. Resistance was expressed as both Ohms*cm^2 and percent original TER value.
TER values were calculated as: [formula] [formula] Formula terms for TER calculation defined: […]
A decrease in TER value relative to the control value indicates a decrease in cell membrane resistance and an increase in mucosal epithelial cell permeability.
as §1

Sequence: CNGRCGGKKKLKLLLKLL [PN679]
- % FD3 Permeation ([1]; 25 μM peptide): 0%
- % FD3 Permeation ([1]; 100 μM peptide): 7%
- % FD3 Permeation ([1]; 250 μM peptide): 8%
- % FD3 Permeation ([1]; 500 μM peptide): 10%
- % FD3 Permeation ([1]; 1000 μM peptide): 10%
- optimal concentration ([1]; based on observed TER reduction, sample permeation and cytotoxicity (LDH release)): 100 µM
- LDH ([2]; 25 μM peptide): 1%
- LDH ([2]; 100 μM peptide): 23%
- LDH ([2]; 250 μM peptide): 38%
- LDH ([2]; 500 μM peptide): 50%
- LDH ([2]; 1000 μM peptide): 51%
- % T0 TER ([3]; 25 μM peptide): 70%
- % T0 TER ([3]; 100 μM peptide): 7%
- % T0 TER ([3]; 250 μM peptide): 2%
- % T0 TER ([3]; 500 μM peptide): −2%
- % T0 TER ([3]; 1000 μM peptide): −2%
